“Also recorded” adds a separate entry of the source. Where two headings read alike, the source gives them in different places.
Experiments:
Assay type in all cases: biochemical
AChE [1] = molecular target: T1, AChE (Electrophorus electricus, UniProt O42275); assay: AChE inhibition, modified Ellman's method; settings: for IC50: determined using 10^−3–10^−9 M concentrations
BChE = tested on: BChE
Description: New benzimidazole-triazole derivatives were designed, synthesized, and evaluated for their potential to inhibit AChE and BChE. First, all the synthesized compounds were tested at 10^−3 M and 10^−4 M concentrations.
The inhibitory activities of the compounds against AChE and BChE were determined in 96-well plates by modified Ellman’s method as defined in our previous studies. Donepezil and tacrine were used as reference drugs. A robotic system, Biotek Precision XS (Winooski, VT, USA), was used for all pipetting processes in the enzyme inhibition assay. Measurements of the percentage inhibition were carried out at 412 nm by using a BioTek-Synergy H1 microplate reader (Winooski, VT, USA). Inhibition potencies of synthesized compounds and IC50 of selected derivatives were calculated as reported previously.

AChE [2] = molecular target: T1, AChE; assay: Enzyme kinetic studies of AChE inhibition (Lineweaver-Burk plots, secondary plots); settings: 2 × IC50, IC50 and IC50/2, substrate 600 µM to 18.75 µM
Description: Enzyme kinetic studies were carried out in order to determine the mechanism of AChE inhibition. The type of inhibition was forecast using linear Lineweaver-Burk plots. […] The initial velocity measurements were recorded by using different substrate concentrations ranging from 600 µM to 18.75 µM for AChE enzyme. The secondary plots of the Km/Vmax (slope) versus varying concentrations were used to calculate Ki (intercept on the x-axis) values of compounds [35]. The graphical analyses of the steady-state inhibition data for AChE enzyme are shown in Figure 1 and Figure 2, respectively.
Reversible inhibition consists of the following subtypes: mixed-type, competitive, uncompetitive, or noncompetitive. These types of inhibition can be determined with the help of Lineweaver-Burk plots. […] Namely, both compounds can bind to the free enzyme or the enzyme-substrate complex. […] It is known that these interactions occur quickly and can be easily reversed. Therefore, the enzyme and inhibitor complex is rapidly degraded immediately prior to irreversible inhibition. […] As a result, enzyme kinetics studies have shown the biological importance of compounds 3d and 3h due to their mixed type forces, unlike irreversible enzyme inhibitors.
Enzyme kinetic studies were performed for compounds 3d and 3h in order to determine the inhibition type on AChE. […]

T1 sequence (O42275 24-633): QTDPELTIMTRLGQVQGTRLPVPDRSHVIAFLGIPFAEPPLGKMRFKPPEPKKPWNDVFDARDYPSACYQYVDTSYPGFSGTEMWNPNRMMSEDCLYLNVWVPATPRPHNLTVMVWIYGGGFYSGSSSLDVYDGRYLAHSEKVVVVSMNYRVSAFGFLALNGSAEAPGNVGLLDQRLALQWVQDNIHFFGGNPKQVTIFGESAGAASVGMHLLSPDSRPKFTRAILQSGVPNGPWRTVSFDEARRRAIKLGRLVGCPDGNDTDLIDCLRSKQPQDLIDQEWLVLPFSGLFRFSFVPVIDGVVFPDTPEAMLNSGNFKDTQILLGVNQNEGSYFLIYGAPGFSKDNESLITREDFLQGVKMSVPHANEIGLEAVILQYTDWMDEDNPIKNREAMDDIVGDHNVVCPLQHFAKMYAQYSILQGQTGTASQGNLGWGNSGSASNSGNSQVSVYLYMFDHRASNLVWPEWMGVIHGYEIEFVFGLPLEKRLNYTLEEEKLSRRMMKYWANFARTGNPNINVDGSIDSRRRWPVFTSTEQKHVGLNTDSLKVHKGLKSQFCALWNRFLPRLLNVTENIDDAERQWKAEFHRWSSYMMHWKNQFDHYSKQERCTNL

Structure (SMILES)	% Inhibition AChE (AChE [1]; 10^−3 M) [%]	% Inhibition AChE (AChE [1]; 10^−4 M) [%]	% Inhibition BChE (BChE; 10^−3 M) [%]	% Inhibition BChE (BChE; 10^−4 M) [%]	% Inhibition of AChE (AChE [1]; 10^−5 M) [%]	% Inhibition of AChE (AChE [1]; 10^−6 M) [%]	% Inhibition of AChE (AChE [1]; 10^−7 M) [%]	% Inhibition of AChE (AChE [1]; 10^−8 M) [%]	% Inhibition of AChE (AChE [1]; 10^−9 M) [%]	type of AChE inhibition (AChE [2])	IC50 (AChE [1]) [nM]
Cn1c(SCC(=O)c2ccc(C#N)cc2)nnc1-c1ccc(-c2nc3cc(Cl)ccc3[nH]2)cc1 [3a, 2-(4-(4-Methyl-5-(2-(4-cyanophenyl)-2-oxo-ethylthio)-4H-1,2,4-triazol-3yl)-phenyl)-5(6)-chloro-1H-benz-imidazole]	68.18 ± 1.05	47.26 ± 0.62	40.28 ± 0.98	25.13 ± 0.56	–	–	–	–	–	–	–
Cn1c(SCC(=O)c2ccc(Br)cc2)nnc1-c1ccc(-c2nc3cc(Cl)ccc3[nH]2)cc1 [3b, 2-(4-(4-Methyl-5-(2-(4-bromophenyl)-2-oxo-ethylthio)-4H-1,2,4-triazol-3yl)-phenyl)-5(6)-chloro-1H-benz-imidazole]	44.20 ± 0.87	26.18 ± 0.63	28.15 ± 0.97	18.42 ± 0.88	–	–	–	–	–	–	–
Cc1ccc(C(=O)CSc2nnc(-c3ccc(-c4nc5cc(Cl)ccc5[nH]4)cc3)n2C)cc1 [3c, 2-(4-(4-Methyl-5-(2-(4-methylphenyl)-2-oxo-ethylthio)-4H-1,2,4-triazol-3yl)-phenyl)-5(6)-chloro-1H-benz-imidazole]	39.18 ± 0.71	17.89 ± 0.54	26.11 ± 0.74	20.21 ± 0.61	–	–	–	–	–	–	–
Cn1c(SCC(=O)c2ccc(O)c(O)c2)nnc1-c1ccc(-c2nc3cc(Cl)ccc3[nH]2)cc1 [3d, 2-(4-(4-Methyl-5-(2-(3,4-dihydroxyphenyl)-2-oxo-ethylthio)-4H-1,2,4-triazol-3yl)-phenyl)-5(6)-chloro-1H-benzimidazole]	98.55 ± 1.17	–	51.19 ± 0.99	38.12 ± 0.41	87.26 ± 1.28	78.85 ± 1.19	67.18 ± 0.92	45.32 ± 0.82	15.75 ± 0.48	mixed type inhibition; also recorded: reversible inhibitors; also recorded: reversible and mixed-type	–
CCn1c(SCC(=O)c2ccc(C#N)cc2)nnc1-c1ccc(-c2nc3cc(Cl)ccc3[nH]2)cc1 [3e, 2-(4-(4-Ethyl-5-(2-(4-cyanophenyl)-2-oxo-ethylthio)-4H-1,2,4-triazol-3yl)-phenyl)-5(6)-chloro-1H-benz-imidazole]	77.29 ± 1.06	41.22 ± 0.84	38.22 ± 0.63	22.41 ± 0.47	–	–	–	–	–	–	–
CCn1c(SCC(=O)c2ccc(Br)cc2)nnc1-c1ccc(-c2nc3cc(Cl)ccc3[nH]2)cc1 [3f, 2-(4-(4-Ethyl-5-(2-(4-bromophenyl)-2-oxo-ethylthio)-4H-1,2,4-triazol-3yl)-phenyl)-5(6)-chloro-1H-benz-imidazole]	47.22 ± 0.67	24.08 ± 0.48	29.15 ± 0.59	17.88 ± 0.40	–	–	–	–	–	–	–
CCn1c(SCC(=O)c2ccc(C)cc2)nnc1-c1ccc(-c2nc3cc(Cl)ccc3[nH]2)cc1 [3g, 2-(4-(4-Ethyl-5-(2-(4-methylphenyl)-2-oxo-ethylthio)-4H-1,2,4-triazol-3yl)-phenyl)-5(6)-chloro-1H-benz-imidazole]	37.20 ± 0.68	18.33 ± 0.38	31.89 ± 0.99	24.75 ± 0.95	–	–	–	–	–	–	–
CCn1c(SCC(=O)c2ccc(O)c(O)c2)nnc1-c1ccc(-c2nc3cc(Cl)ccc3[nH]2)cc1 [3h, 2-(4-(4-Ethyl-5-(2-(3,4-dihydroxyphenyl)-2-oxo-ethylthio)-4H-1,2,4-triazol-3yl)-phenyl)-5(6)-chloro-1H-benzimidazole]	98.25 ± 1.12	–	61.26 ± 0.90	35.20 ± 0.42	90.23 ± 1.03	81.25 ± 1.08	65.32 ± 0.97	44.28 ± 0.71	17.20 ± 0.58	mixed type inhibition; also recorded: reversible inhibitors; also recorded: reversible and mixed-type	–
Cn1c(SCC(=O)c2ccc(C#N)cc2)nnc1-c1ccc(-c2nc3cc(F)ccc3[nH]2)cc1 [3i, 2-(4-(4-Methyl-5-(2-(4-cyanophenyl)-2-oxo-ethylthio)-4H-1,2,4-triazol-3yl)-phenyl)-5(6)-fluoro-1H-benz-imidazole]	61.22 ± 1.02	38.28 ± 0.67	43.51 ± 0.78	18.49 ± 0.50	–	–	–	–	–	–	–
Cn1c(SCC(=O)c2ccc(Br)cc2)nnc1-c1ccc(-c2nc3cc(F)ccc3[nH]2)cc1 [3j, 2-(4-(4-Methyl-5-(2-(4-bromophenyl)-2-oxo-ethylthio)-4H-1,2,4-triazol-3yl)-phenyl)-5(6)-fluoro-1H-benz-imidazole]	48.51 ± 0.88	18.39 ± 0.60	29.64 ± 0.87	21.44 ± 0.70	–	–	–	–	–	–	–
Cc1ccc(C(=O)CSc2nnc(-c3ccc(-c4nc5cc(F)ccc5[nH]4)cc3)n2C)cc1 [3k, 2-(4-(4-Methyl-5-(2-(4-methylphenyl)-2-oxo-ethylthio)-4H-1,2,4-triazol-3yl)-phenyl)-5(6)-fluoro-1H-benz-imidazole]	42.29 ± 0.71	27.88 ± 0.67	36.17 ± 0.93	21.16 ± 0.97	–	–	–	–	–	–	–
Cn1c(SCC(=O)c2ccc(O)c(O)c2)nnc1-c1ccc(-c2nc3cc(F)ccc3[nH]2)cc1 [3l, 2-(4-(4-Methyl-5-(2-(3,4-dihydroxyphenyl)-2-oxo-ethylthio)-4H-1,2,4-triazol-3yl)-phenyl)-5(6)-fluoro-1H-benzimidazole]	94.58 ± 1.74	–	55.43 ± 0.47	29.88 ± 0.38	73.18 ± 1.17	68.20 ± 0.97	48.11 ± 0.61	32.29 ± 0.58	18.77 ± 0.37	–	169 ± 7.2
CCn1c(SCC(=O)c2ccc(C#N)cc2)nnc1-c1ccc(-c2nc3cc(F)ccc3[nH]2)cc1 [3m, 2-(4-(4-Ethyl-5-(2-(4-cyanophenyl)-2-oxo-ethylthio)-4H-1,2,4-triazol-3yl)-phenyl)-5(6)-fluoro-1H-benz-imidazole]	59.03 ± 0.88	39.26 ± 0.46	48.11 ± 0.38	20.66 ± 0.45	–	–	–	–	–	–	–
CCn1c(SCC(=O)c2ccc(Br)cc2)nnc1-c1ccc(-c2nc3cc(F)ccc3[nH]2)cc1 [3n, 2-(4-(4-Ethyl-5-(2-(4-bromophenyl)-2-oxo-ethylthio)-4H-1,2,4-triazol-3yl)-phenyl)-5(6)-fluoro-1H-benz-imidazole]	49.27 ± 0.55	30.21 ± 0.49	27.10 ± 0.53	18.77 ± 0.42	–	–	–	–	–	–	–
CCn1c(SCC(=O)c2ccc(C)cc2)nnc1-c1ccc(-c2nc3cc(F)ccc3[nH]2)cc1 [3o, 2-(4-(4-Ethyl-5-(2-(4-methylphenyl)-2-oxo-ethylthio)-4H-1,2,4-triazol-3yl)-phenyl)-5(6)-fluoro-1H-benz-imidazole]	28.06 ± 0.33	19.22 ± 0.30	25.99 ± 0.38	20.08 ± 0.46	–	–	–	–	–	–	–
CCn1c(SCC(=O)c2ccc(O)c(O)c2)nnc1-c1ccc(-c2nc3cc(F)ccc3[nH]2)cc1 [3p, 2-(4-(4-Ethyl-5-(2-(3,4-dihydroxyphenyl)-2-oxo-ethylthio)-4H-1,2,4-triazol-3yl)-phenyl)-5(6)-fluoro-1H-benzimidazole]	87.26 ± 1.17	–	53.19 ± 0.46	31.44 ± 0.38	77.48 ± 1.98	71.62 ± 1.08	47.83 ± 0.97	39.33 ± 0.67	15.47 ± 0.64	–	140 ± 5.1
